From patent EP4568957B1, “SUBSTITUTED PHENYL OXOOXAZOLYL PIPERIDINE DIONE COMPOUNDS” (Bristol-Myers Squibb Company, priority 2023, dated 2025)
Where “and” joins values, the source holds several entries; their conditions need not be identical. Equal entries are not always repeated.

Assays:
Type in all cases: cell-based
[1] = molecular target: T1, IKZF1 Ikaros (Homo sapiens, UniProt Q13422+Q96SW2); assay: Jurkat Cellular Degradation Assay; parameters: fluorescently labelled antibodies against Helios, Ikaros and Aiolos; endogenous in cells; host or cells: Jurkat cells; settings: Jurkat cells, 24 h; for DC50: 50% reduction of protein vs DMSO alone; for IKZF1 Ikaros max % deg. observed: 100% = complete degradation
T1 sequence (Q13422 whole entry): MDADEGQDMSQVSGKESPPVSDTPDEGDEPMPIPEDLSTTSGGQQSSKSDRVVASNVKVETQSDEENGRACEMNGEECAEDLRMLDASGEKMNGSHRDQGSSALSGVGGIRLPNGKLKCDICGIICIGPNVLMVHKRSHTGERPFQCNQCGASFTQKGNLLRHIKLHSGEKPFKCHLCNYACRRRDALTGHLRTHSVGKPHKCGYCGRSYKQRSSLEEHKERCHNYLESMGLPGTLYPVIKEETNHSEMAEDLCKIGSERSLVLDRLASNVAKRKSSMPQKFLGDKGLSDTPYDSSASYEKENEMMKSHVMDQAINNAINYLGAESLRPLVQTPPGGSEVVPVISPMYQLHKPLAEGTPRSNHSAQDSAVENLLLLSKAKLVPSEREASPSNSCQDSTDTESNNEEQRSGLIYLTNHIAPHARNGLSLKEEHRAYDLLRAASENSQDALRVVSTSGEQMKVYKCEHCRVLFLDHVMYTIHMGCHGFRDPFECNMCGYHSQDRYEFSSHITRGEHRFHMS
T1 sequence (Q96SW2 whole entry): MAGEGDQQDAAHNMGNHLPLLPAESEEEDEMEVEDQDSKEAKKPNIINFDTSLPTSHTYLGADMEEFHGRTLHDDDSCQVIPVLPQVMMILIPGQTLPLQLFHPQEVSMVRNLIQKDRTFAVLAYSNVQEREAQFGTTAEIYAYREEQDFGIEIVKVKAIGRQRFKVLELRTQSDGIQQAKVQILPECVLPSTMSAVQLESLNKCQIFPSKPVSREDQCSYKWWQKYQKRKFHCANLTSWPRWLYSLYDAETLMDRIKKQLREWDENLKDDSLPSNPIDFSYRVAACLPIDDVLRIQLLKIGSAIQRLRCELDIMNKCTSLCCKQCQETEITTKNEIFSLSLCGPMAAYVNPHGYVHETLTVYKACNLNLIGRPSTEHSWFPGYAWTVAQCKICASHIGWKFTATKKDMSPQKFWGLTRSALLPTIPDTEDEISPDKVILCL
T1 sequence (Q16531 whole entry partner): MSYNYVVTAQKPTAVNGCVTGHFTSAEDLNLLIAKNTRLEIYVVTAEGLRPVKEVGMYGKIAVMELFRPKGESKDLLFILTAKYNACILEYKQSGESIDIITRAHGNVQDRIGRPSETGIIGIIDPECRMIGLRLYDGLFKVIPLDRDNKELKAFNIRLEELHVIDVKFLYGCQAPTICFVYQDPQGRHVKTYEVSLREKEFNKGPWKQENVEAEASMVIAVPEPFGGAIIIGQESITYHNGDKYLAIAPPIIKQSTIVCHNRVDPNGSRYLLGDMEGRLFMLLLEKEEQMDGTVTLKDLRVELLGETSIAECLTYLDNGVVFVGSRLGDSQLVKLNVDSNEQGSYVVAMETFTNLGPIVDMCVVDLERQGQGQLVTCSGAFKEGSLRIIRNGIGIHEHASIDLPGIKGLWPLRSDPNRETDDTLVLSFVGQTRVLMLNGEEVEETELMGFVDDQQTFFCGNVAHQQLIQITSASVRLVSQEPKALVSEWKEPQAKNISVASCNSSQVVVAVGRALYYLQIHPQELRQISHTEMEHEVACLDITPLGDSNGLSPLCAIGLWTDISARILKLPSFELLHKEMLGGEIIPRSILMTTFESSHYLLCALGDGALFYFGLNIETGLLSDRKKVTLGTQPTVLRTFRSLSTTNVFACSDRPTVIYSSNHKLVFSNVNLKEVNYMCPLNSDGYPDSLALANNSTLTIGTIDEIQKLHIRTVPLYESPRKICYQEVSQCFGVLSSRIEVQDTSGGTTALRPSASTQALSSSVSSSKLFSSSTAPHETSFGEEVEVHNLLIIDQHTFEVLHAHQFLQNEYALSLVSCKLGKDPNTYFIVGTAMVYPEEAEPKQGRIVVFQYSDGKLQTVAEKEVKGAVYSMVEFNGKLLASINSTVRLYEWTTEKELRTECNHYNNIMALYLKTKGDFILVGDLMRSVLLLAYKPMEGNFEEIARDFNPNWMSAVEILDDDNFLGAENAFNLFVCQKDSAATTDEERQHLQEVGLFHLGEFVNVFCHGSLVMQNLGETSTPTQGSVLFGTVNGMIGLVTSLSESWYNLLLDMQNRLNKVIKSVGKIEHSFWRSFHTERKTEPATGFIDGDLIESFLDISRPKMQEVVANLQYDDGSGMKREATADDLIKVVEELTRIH
Procedure: (§1) Jurkat cells were plated at 80,000 cells/well in 40 µL RPMI + 10% FBS in a 384-well cell culture plate prior to using acoustic dispensing technology for adding a compound of interest. Cell cultures were incubated for 24 h at 37 °C and 5% CO2. In order to facilitate analysis, cell cultures were spun down at 200 rpm for 5 min and the supernatant was discarded. After shaking the plate to dislodge the cell pellet, cells were resuspended in 50 µL of Fixation Buffer (eBioscience FoxP3 buffer set 00-5523-00) for 60 min at room temperature. After centrifuging and discarding the supernatant, cells were permeabilized with 50 µL of Permeabilization buffer (eBioscience FoxP3 buffer set 00-5523-00) for 10 min at room temperature. Following permeabilization, cells were spun down and the supernatant was replaced with 20 µL fluorescently labelled antibodies against Helios, Ikaros and Aiolos or corresponding Isotype controls in 1× Permeabilization buffer (Ikaros-Alexa488 [Biolegend, Cat #368408, 1:50], Helios-PE [CST, Cat #29360, 1:50]. Aiolos-Alexa647 [Biolegend, Cat #371106 Biolegend, 1:25]) and staining reactions were incubated for 1 h at room temperature while protected from light. Subsequently, 30 µL of 1× Permeabilization buffer was added prior to centrifuging the cells and discarding the supernatant. Stained cells were resuspended in 25 µL of flow cytometry staining buffer [PBS + 0.2% bovine serum albumin (BSA)] and analyzed using an Intellicyt Ique Plus flow cytometer. TABLE A-1

[2] = molecular target: IKZF2 Helios (Homo sapiens, UniProt Q96SW2+Q9UKS7); assay: Jurkat Cellular Degradation Assay; parameters: fluorescently labelled antibodies against Helios, Ikaros and Aiolos; endogenous in cells; host or cells: Jurkat cells; settings: for DC50: 50% reduction of protein vs DMSO alone; for IKZF2** Helios max % deg. observed: Table E summary, Jurkat Cellular Degradation Assay (A-1)
Sequence of IKZF2 Helios (Q9UKS7 whole entry): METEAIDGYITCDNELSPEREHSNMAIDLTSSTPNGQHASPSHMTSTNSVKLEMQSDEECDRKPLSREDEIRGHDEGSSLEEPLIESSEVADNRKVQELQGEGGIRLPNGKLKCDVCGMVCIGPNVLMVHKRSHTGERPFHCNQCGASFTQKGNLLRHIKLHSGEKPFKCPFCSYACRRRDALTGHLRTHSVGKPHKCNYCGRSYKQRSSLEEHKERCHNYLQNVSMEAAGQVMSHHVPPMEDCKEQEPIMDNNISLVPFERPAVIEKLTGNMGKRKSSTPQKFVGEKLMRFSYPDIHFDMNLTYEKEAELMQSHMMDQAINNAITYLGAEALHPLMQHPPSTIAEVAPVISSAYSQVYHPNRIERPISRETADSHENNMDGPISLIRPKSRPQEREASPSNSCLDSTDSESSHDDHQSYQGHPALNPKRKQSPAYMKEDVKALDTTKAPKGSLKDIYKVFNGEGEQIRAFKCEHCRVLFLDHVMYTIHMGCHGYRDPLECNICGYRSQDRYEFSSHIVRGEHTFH
Sequence of IKZF2 Helios (Q96SW2 whole entry): as the sequence (Q96SW2 whole entry) above
Sequence of IKZF2 Helios (Q16531 whole entry partner): as the sequence (Q16531 whole entry partner) above
Procedure: as §1

[3] = molecular target: T2, IKZF3 Aiolos (Homo sapiens, UniProt Q96SW2+Q9UKT9); assay: Jurkat Cellular Degradation Assay; parameters: fluorescently labelled antibodies against Helios, Ikaros and Aiolos; endogenous in cells; host or cells: Jurkat cells; settings: Jurkat cells, 24 h; for DC50: 50% reduction of protein vs DMSO alone; for IKZF3 Aiolos max % deg. observed: 100% = complete degradation
T2 sequence (Q9UKT9 whole entry): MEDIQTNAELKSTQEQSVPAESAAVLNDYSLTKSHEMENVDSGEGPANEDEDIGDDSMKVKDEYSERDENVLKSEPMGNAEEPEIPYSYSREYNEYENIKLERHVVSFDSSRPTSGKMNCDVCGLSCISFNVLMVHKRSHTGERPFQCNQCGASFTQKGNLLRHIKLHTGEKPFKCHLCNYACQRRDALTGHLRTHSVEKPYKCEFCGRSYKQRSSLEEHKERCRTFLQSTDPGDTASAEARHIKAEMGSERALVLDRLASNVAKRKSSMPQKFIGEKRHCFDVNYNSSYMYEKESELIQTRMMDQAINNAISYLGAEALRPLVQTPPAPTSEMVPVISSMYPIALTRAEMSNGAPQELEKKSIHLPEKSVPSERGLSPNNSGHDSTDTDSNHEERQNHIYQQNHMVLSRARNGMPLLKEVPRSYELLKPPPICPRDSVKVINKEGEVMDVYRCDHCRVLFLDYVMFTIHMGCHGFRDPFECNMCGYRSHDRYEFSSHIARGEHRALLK
T2 sequence (Q96SW2 whole entry): as the sequence (Q96SW2 whole entry) above
T2 sequence (Q16531 whole entry partner): as the sequence (Q16531 whole entry partner) above
Procedure: as §1

[4] = molecular target: T1, IKZF1 Ikaros; assay: Human CD8+ T Cell Reprogramming Assay (method headed Human CD8+ T Cell Degradation Assay); parameters: Foxp3-BV421, HELIOS-PE-Cy7, EOS-PE, IKAROS-PECF594, AIOLOS-AF647; endogenous in cells; host or cells: human PBMC from healthy donors (CD8+ T cells gated by flow cytometry); settings: for IKZF1* Ikaros max % deg. observed: Table E summary, Human CD8+ T Cell Reprogramming Assay (D-1); for DC50 / IKZF1 Ikaros Maximum Observed Degradation: human PBMC, CD8+ T cells, 24 hours; for DC50: vs DMSO alone
Procedure: (§2) Cryopreserved healthy donor human peripheral blood mononuclear cells (PBMC) from healthy donors were thawed and seeded at 500,000 cells/well of 96-well round bottom plates in RPMI 1640 media (Gibco) supplemented with 10% FBS, Pen/Strep (Gibco), MEM-NEAA (Gibco), and sodium pyruvate (Gibco). Cells were treated with titrated doses of compound for 24 hours at 37 °C, 5% CO2, before analyzing by flow cytometry.
(§3) For flow cytometry staining, cells were washed twice with flow cytometry staining buffer (Thermo Fisher) and incubated in Human Tru-stain Fc block (Biolegend) for 10 minutes before adding eFluor780 viability dye (Thermo Fisher) and surface marker antibody cocktail containing LD-eFluor780, CD3-BUV-395, CD4-BUV805, CD8-FITC, and CD25-BV605 for 30 minutes at 4 °C, Cells were then fixed and permeabilized by incubation with permeabilization buffer (eBioscience FoxP3 buffer set 00-5523-00) for 30 minutes at 4 °C as per the kit manufacturer's instructions. Cells were washed twice with the Perm/Wash buffer supplied in the kit as per the manufacturer's instructions and incubated overnight at 4 °C with an intracellular antibody cocktail comprised of antibodies specific for the transcription factors (i.e. , Foxp3-BV421, HELIOS-PE-Cy7, EOS-PE, IKAROS-PECF594, AIOLOS-AF647). Cells were washed twice with Perm/Wash buffer and resuspended in flow cytometry staining buffer (Thermo Fisher) prior to acquisition. Sample acquisition and analysis was performed using a BD LSRFortessa (BD Biosciences) flow cytometer. Single-stain controls for each fluorochrome were prepared using UltraComp eBead Compensation Beads (Thermo Fisher). Data were analyzed using FlowJo version 10 and GraphPad Prism Software. TABLE D-1

[5] = molecular target: T2, IKZF3 Aiolos; assay: as above; parameters: Foxp3-BV421, HELIOS-PE-Cy7, EOS-PE, IKAROS-PECF594, AIOLOS-AF647; endogenous in cells; host or cells: human PBMC from healthy donors (CD8+ T cells gated by flow cytometry); settings: for IKZF3* Aiolos max % deg. observed: Table E summary, Human CD8+ T Cell Reprogramming Assay (D-1); for DC50 / IKZF3 Aiolos Maximum Observed Degradation: human PBMC, CD8+ T cells, 24 hours; for DC50: vs DMSO alone
Procedure: as §2, §3

## CO[C@H]1C[C@H](Oc2c(C)cc(-c3ccc(-c4cn(C5CCC(=O)NC5=O)c(=O)o4)c(F)c3)nc2N)C1 (relative stereo) [Example 2, trans 3-(5-(4-(6-amino-5-(3-methoxycyclobutoxy)-4-methylpyridin-2-yl)-2-fluorophenyl)-2-oxooxazol-3(2H)-yl)piperidine-2,6-dione]
[1]
  DC50: 4380 nM
[2]; Jurkat cells, 24 h
  DC50: 37 nM
[2]
  IKZF2** Helios max % deg. observed: 92%
[3]
  DC50: 2320 nM
[4]
  IKZF1* Ikaros max % deg. observed: 53%
  DC50: 132 nM
[5]
  IKZF3* Aiolos max % deg. observed: 58%
  DC50: 86 nM

## O=C1CCC(n2cc(-c3ccccc3)oc2=O)C(=O)N1 (centres unmarked) [Comparative Compound A, 3-(2-oxo-5-phenyloxazol-3(2H)-yl)piperidine-2,6-dione, reference compound]
[1]
  DC50: 1520 nM
  IKZF1 Ikaros max % deg. observed: 70%
[2]; Jurkat cells, 24 h
  DC50: > 10000 nM
[2]
  IKZF2** Helios max % deg. observed: 27%
[3]
  DC50: > 10000 nM
  IKZF3 Aiolos max % deg. observed: 52%
[4]
  IKZF1* Ikaros max % deg. observed: 74%
  IKZF1 Ikaros Maximum Observed Degradation: 74%
  DC50: 113 nM
[5]
  IKZF3* Aiolos max % deg. observed: 80%
  IKZF3 Aiolos Maximum Observed Degradation: 80%
  DC50: 21 nM

## O=C1CCC(n2cc(-c3ccc(Br)cc3F)oc2=O)C(=O)N1 (centres unmarked) [Comparative Compound B, 3-(5-(4-bromo-2-fluorophenyl)-2-oxooxazol-3(2H)-yl)piperidine-2,6-dione, reference compound]
[1]
  DC50: > 10000 nM
  IKZF1 Ikaros max % deg. observed: 24%
[2]; Jurkat cells, 24 h
  DC50: > 10000 nM
[2]
  IKZF2** Helios max % deg. observed: 11%
[3]
  DC50: > 10000 nM
  IKZF3 Aiolos max % deg. observed: 25%
[4]
  IKZF1* Ikaros max % deg. observed: 17%
  IKZF1 Ikaros Maximum Observed Degradation: 17%
  DC50: > 1000 nM
[5]
  IKZF3* Aiolos max % deg. observed: 0%
  IKZF3 Aiolos Maximum Observed Degradation: 0%
  DC50: > 1000 nM

## CC1(C)Cc2cc(-c3ccc(-c4cn(C5CCC(=O)NC5=O)c(=O)o4)c(F)c3)nc(N)c2O1 (centres unmarked) [Example 1, 3-(5-(4-(7-amino-2,2-dimethyl-2,3-dihydrofuro[2,3-c]pyridin-5-yl)-2-fluorophenyl)-2-oxooxazol-3(2H)-yl)piperidine-2,6-dione]
[1]
  DC50: 1510 nM
  IKZF1 Ikaros max % deg. observed: 63%
[2]; Jurkat cells, 24 h
  DC50: 22 nM
[2]
  IKZF2** Helios max % deg. observed: 89%
[3]
  DC50: 600 nM
  IKZF3 Aiolos max % deg. observed: 55%
[4]
  IKZF1* Ikaros max % deg. observed: 76%
  DC50: 53 nM
[5]
  IKZF3* Aiolos max % deg. observed: 76%
  DC50: 18 nM

## Cc1cc(-c2ccc(-c3cn(C4CCC(=O)NC4=O)c(=O)o3)c(F)c2)nc(N)c1NCC1CCOCC1 (centres unmarked) [Example 3, 3-(5-(4-(6-amino-4-methyl-5-(((tetrahydro-2H-pyran-4-yl)methyl)amino)pyridin-2-yl)-2-fluorophenyl)-2-oxooxazol-3(2H)-yl)piperidine-2,6-dione]
[1]
  DC50: 5600 nM
  IKZF1 Ikaros max % deg. observed: 64% and 57%
[2]; Jurkat cells, 24 h
  DC50: 36 nM
[2]
  IKZF2** Helios max % deg. observed: 92%
[3]
  DC50: 9490 nM
  IKZF3 Aiolos max % deg. observed: 48% and 54%
[4]
  IKZF1* Ikaros max % deg. observed: 67%
  DC50: 181 nM
[5]
  IKZF3* Aiolos max % deg. observed: 67%
  DC50: 193 nM

## COC1CCN(Cc2ccc(-c3ccc(-c4cn(C5CCC(=O)NC5=O)c(=O)o4)c(F)c3)nc2N)CC1 (centres unmarked) [Example 4, 3-(5-(4-(6-amino-5-((4-methoxypiperidin-1-yl)methyl)pyridin-2-yl)-2-fluorophenyl)-2-oxooxazol-3(2H)-yl)piperidine-2,6-dione]
[1]
  DC50: 1200 nM
  IKZF1 Ikaros max % deg. observed: 69%
[2]; Jurkat cells, 24 h
  DC50: 34 nM
[2]
  IKZF2** Helios max % deg. observed: 91%
[3]
  DC50: 3010 nM
  IKZF3 Aiolos max % deg. observed: 61%
[4]
  IKZF1* Ikaros max % deg. observed: 80%
  DC50: 15 nM
[5]
  IKZF3* Aiolos max % deg. observed: 77%
  DC50: 18 nM

## Cc1cc(-c2ccc(-c3cn(C4CCC(=O)NC4=O)c(=O)o3)c(F)c2)nc(N)c1COC1CCOCC1 (centres unmarked) [Example 5, 3-(5-(4-(6-Amino-4-methyl-5-(((tetrahydro-2H-pyran-4-yl)oxy)methyl)pyridin-2-yl)-2-fluorophenyl)-2-oxooxazol-3(2H)-yl)piperidine-2,6-dione]
[1]
  DC50: 7900 nM
  IKZF1 Ikaros max % deg. observed: 51%
[2]; Jurkat cells, 24 h
  DC50: 50 nM
[2]; Jurkat cells, 24 h, 100% = complete degradation
  IKZF2 Helios max % deg. observed: 92%
[2]
  IKZF2** Helios max % deg. observed: 92%
[3]
  DC50: > 10000 nM
  IKZF3 Aiolos max % deg. observed: 38%
[4]
  IKZF1* Ikaros max % deg. observed: 56%
  DC50: 366 nM
[5]
  IKZF3* Aiolos max % deg. observed: 72%
  IKZF3 Aiolos Maximum Observed Degradation: 72%
  DC50: 131 nM
